From patent publication US10258602B2 (Ocera Therapeutics, Inc., priority 2007, dated 2019)

Molecular target: T1, hGHS-R1a (Homo sapiens, UniProt Q92847)
T1 construct: expressed in transfected cells
Assay: Activation-desensitization profile, Ca2+ flux in HEK293 cells stably expressing hGHS-R1a
Type: cell-based
Conditions: higher positive = less desensitization potential
Protocol: M. Activation-Desensitization Profile
It is well-known that agonists of G-protein coupled receptors can induce desensitization or tachyphylaxis, thereby limiting the potential of agents acting at the receptor as therapeutics for chronic use.
• 1. […] Agonist-induced Ca^+2 fluxes were measured after loading with Ca^+2 indicator Fluo-4-AM. • 3. […] Results

T1 sequence (Q92847 whole entry): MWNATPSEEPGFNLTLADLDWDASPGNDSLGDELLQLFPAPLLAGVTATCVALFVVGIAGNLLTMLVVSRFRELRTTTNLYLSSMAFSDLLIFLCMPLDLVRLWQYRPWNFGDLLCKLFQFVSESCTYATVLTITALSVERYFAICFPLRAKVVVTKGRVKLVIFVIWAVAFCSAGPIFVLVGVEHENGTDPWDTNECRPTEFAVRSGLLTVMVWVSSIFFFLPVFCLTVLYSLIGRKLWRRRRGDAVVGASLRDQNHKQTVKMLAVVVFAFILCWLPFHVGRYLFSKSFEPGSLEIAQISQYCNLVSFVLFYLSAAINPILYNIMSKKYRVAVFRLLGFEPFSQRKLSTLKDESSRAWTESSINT

Structure (SMILES): CN1N=C2CCN(C(=O)[C@@H](COCc3ccccc3)NC(=O)C(C)(C)N)C[C@@]2(Cc2ccccc2)C1=O [Capromorelin, capromorelin, reference compound]
- Δ(activity-desensitization) (pEC50 − pDC50): 0.91
